Measured values as given in patent US20260176320A1, “MODULATORS OF G-PROTEIN COUPLED RECEPTORS” (priority 2018, published 2026).
Like-named read-outs stand apart in the source and are kept apart here.

Experiments:
Format in all cases: cell-based
GLP-1R [1] = biological target: T1, GLP-1R (Homo sapiens, UniProt P43220); experiment: HitHunter cAMP assay (GLP-1R); details: cAMP; for Emax: read-out: (Emax) GLP-1R
Summary of the method: (§1)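 cAMP, luminescence read: agonist 22-pt 2× dilution in DMSO, duplicate, 30 min RT on 10,000 cells/well in 1×HBSS/10 mM HEPES/625 μM IBMX/0.2% BSA; anti-cAMP reagent 1 h RT dark, then O/N RT dark before read.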

GIP-R = biological target: T2, GIP-R (Homo sapiens, UniProt P48546); experiment: HitHunter cAMP assay (GIP-R); details: cAMP; for Emax: read-out: (Emax) GIP-R
T2 sequence (P48546 22-466): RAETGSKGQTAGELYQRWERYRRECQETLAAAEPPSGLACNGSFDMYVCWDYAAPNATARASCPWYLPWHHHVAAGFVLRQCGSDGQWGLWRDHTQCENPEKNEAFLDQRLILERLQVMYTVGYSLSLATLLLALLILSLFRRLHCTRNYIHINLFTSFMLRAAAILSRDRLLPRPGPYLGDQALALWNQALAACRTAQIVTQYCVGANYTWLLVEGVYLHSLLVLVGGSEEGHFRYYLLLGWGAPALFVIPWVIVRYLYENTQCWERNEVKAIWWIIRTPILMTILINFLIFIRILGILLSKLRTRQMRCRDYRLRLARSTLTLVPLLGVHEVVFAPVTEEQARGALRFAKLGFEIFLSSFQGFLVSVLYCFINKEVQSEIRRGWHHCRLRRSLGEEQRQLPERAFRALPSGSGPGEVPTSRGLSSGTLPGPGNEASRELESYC
Summary of the method: as §1

GLP-1R [2] = biological target: T1, GLP-1R; experiment: PathHunter β-arrestin assay
Method: The effects of the chemical entities described herein on β-arrestin signaling and associated downstream processes (e.g., those delineated above) can be assessed using conventional methods, e.g., PathHunter β-arrestin Assay for determining β-arresting coupling (see Examples section). […] It has been shown that b-arrestin coupling is a key strep in receptor internalization and subsequent de-sensitization and attenuation of signaling.
5,000 cells were seeded in appropriate cell culture media per well in a low volume 384-well tissue culture plate. The assay plate was incubated with cells overnight at 37° C. and 5% CO2. The media was removed, and 5 μL of appropriate cell culture media containing 0.2% BSA was added. Agonist serial dilutions in a separate 384 well dilution plate in a 22-point series of 2× dilutions of agonist in DMSO were performed as follows. 80 μL of the highest concentration of Agonist/DMSO was added to well No. 1. 40 μL was removed from well No. 1, and added to well No. 2, followed by gentle mixing. […] This process was repeated until well No. 22. Additional serial dilutions for additional agonists were set up in a similar manner. 100 nL of each 2× agonist serial dilution was added in duplicate to the designated agonist rows of the assay plate using the Labcyte ECHO. Assay plate was incubated for 90 minutes at 37° C. and 5% CO2. A stock of Working Detection Solution in a separate 15 ml polypropylene tube was prepared by mixing 19 parts of Cell Assay Buffer, 5 parts of Substrate Reagent 1, 1 part Substrate Reagent 2. […] Plates were spun down briefly. Assay plate was incubated for 3 hour at room temperature in the dark for the immunocompetition reaction to occur. Samples were read on Tecan i-control plate reader using luminescence mode with 100 ms integration time. Data analysis was performed using GraphPad Prism.

[3] = Table 3, read-out: EC50 GLP-1R/nM
[4] = Table 3A, read-out: EC50 GLP-1R/nM
[5] = Table 3, read-out: EC50 GIP-R/nM
[6] = Table 3A, read-out: EC50 GIP-R/nM
[7] = PathHunter β-arrestin assay, read-out: β-arrestin activity EC50

T1 sequence (P43220 24-463): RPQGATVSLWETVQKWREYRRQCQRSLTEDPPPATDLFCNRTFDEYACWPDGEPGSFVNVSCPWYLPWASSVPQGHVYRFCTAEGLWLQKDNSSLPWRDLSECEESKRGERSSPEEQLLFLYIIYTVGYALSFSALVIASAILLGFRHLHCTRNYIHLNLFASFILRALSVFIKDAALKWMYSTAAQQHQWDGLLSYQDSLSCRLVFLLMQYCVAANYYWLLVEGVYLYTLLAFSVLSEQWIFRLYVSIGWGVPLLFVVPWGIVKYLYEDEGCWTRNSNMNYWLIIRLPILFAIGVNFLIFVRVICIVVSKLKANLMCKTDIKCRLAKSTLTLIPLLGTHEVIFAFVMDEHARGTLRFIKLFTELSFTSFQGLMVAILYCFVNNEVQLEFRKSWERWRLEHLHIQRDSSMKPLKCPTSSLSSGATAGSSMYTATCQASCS

| SMILES | Emax (GLP-1R [1]; Table 3) [%] | EC50 (GLP-1R [1]; [3]) [nM] | Emax (GLP-1R [1]; Table 3A) [%] | EC50 (GLP-1R [1]; [4]) [nM] | Emax (GIP-R; Table 3) [%] | EC50 (GIP-R; [5]) [nM] | Emax (GIP-R; Table 3A) [%] | EC50 (GIP-R; [6]) [nM] | EC50 (GLP-1R [2]; [7]) [nM] | EC50 (GLP-1R [1]; EC50 GLP-1R/nM, Table 3) [nM] | EC50 (GLP-1R [1]; EC50 GLP-1R/nM, Table 3A) [nM] | EC50 (GIP-R; EC50 GIP-R/nM, Table 3) [nM] | EC50 (GIP-R; EC50 GIP-R/nM, Table 3A) [nM] | EC50 (GLP-1R [2]) [nM] |
| --- | --- | --- | --- | --- | --- | --- | --- | --- | --- | --- | --- | --- | --- | --- |
| CCCCCCCCCCCCCCCC(=O)N[C@@H](CCC(=O)NCCCC[C@H](NC(=O)[C@H](CO)NC(=O)[C@@H]1CCCN1C(=O)[C@@H]1CCCN1C(=O)[C@@H]1CCCN1C(=O)[C@H](C)NC(=O)CNC(=O)[C@H](CO)NC(=O)[C@H](CO)NC(=O)[C@@H]1CCCN1C(=O)CNC(=O)CNC(=O)[C@H](C)NC(=O)[C@H](CC(C)C)NC(=O)[C@H](CC(C)C)NC(=O)[C@H](Cc1c[nH]c2ccccc12)NC(=O)[C@H](CC(N)=O)NC(=O)[C@@H](NC(=O)[C@H](Cc1ccccc1)NC(=O)[C@H](CCC(=O)O)NC(=O)C(C)(C)NC(=O)[C@H](C)NC(=O)[C@H](C)NC(=O)[C@H](CCC(N)=O)NC(=O)[C@H](CCCCN)NC(=O)[C@H](CC(=O)O)NC(=O)[C@H](CC(C)C)NC(=O)[C@H](Cc1ccc(O)cc1)NC(=O)[C@@H](NC(=O)[C@H](CO)NC(=O)[C@H](Cc1ccc(O)cc1)NC(=O)[C@H](CC(=O)O)NC(=O)[C@H](CO)NC(=O)[C@@H](NC(=O)[C@H](Cc1ccccc1)NC(=O)[C@@H](NC(=O)CNC(=O)[C@H](CCC(=O)O)NC(=O)CSCC(=O)NCCN1CCCOC1=O)[C@@H](C)O)[C@@H](C)O)[C@@H](C)CC)C(C)C)C(N)=O)C(=O)O [Compound 6] | 95 | 0.1 to 1 | 95 | 0.1 to 1 | 75 | 1 to 10 | 75 | 1 to 10 | > 1000 | – | – | – | – | – |
| CCCCCCCCCCCCCCCC(=O)N[C@@H](CCC(=O)NCCCC[C@H](NC(=O)[C@H](CO)NC(=O)[C@@H]1CCCN1C(=O)[C@@H]1CCCN1C(=O)[C@@H]1CCCN1C(=O)[C@H](C)NC(=O)CNC(=O)[C@H](CO)NC(=O)[C@H](CO)NC(=O)[C@@H]1CCCN1C(=O)CNC(=O)CNC(=O)[C@H](C)NC(=O)[C@H](CC(C)C)NC(=O)[C@H](CC(C)C)NC(=O)[C@H](Cc1c[nH]c2ccccc12)NC(=O)[C@H](CC(N)=O)NC(=O)[C@@H](NC(=O)[C@H](Cc1ccccc1)NC(=O)[C@H](CCC(=O)O)NC(=O)C(C)(C)NC(=O)[C@H](C)NC(=O)[C@H](C)NC(=O)[C@H](CCC(N)=O)NC(=O)[C@H](CCCCN)NC(=O)[C@H](CC(=O)O)NC(=O)[C@H](CC(C)C)NC(=O)[C@H](Cc1ccc(O)cc1)NC(=O)[C@@H](NC(=O)[C@H](CO)NC(=O)[C@H](Cc1ccc(O)cc1)NC(=O)[C@H](CC(=O)O)NC(=O)[C@H](CO)NC(=O)[C@@H](NC(=O)[C@H](Cc1ccccc1)NC(=O)[C@@H](NC(=O)CNC(=O)[C@H](CCC(=O)O)NC(=O)CSCC(=O)NCCN1CCC[C@@H](O)C1=O)[C@@H](C)O)[C@@H](C)O)[C@@H](C)CC)C(C)C)C(N)=O)C(=O)O [Compound 7] | 94 | – | 94 | – | 29 | – | 29 | – | – | < 0.1 | < 0.1 | 1 to 10 | 10 to 100 | > 1000 |
| CCCCCCCCCCCCCCCC(=O)N[C@@H](CCC(=O)NCCCC[C@H](NC(=O)[C@H](CO)NC(=O)[C@@H]1CCCN1C(=O)[C@@H]1CCCN1C(=O)[C@@H]1CCCN1C(=O)[C@H](C)NC(=O)CNC(=O)[C@H](CO)NC(=O)[C@H](CO)NC(=O)[C@@H]1CCCN1C(=O)CNC(=O)CNC(=O)[C@H](C)NC(=O)[C@H](CC(C)C)NC(=O)[C@H](CC(C)C)NC(=O)[C@H](Cc1c[nH]c2ccccc12)NC(=O)[C@H](CC(N)=O)NC(=O)[C@@H](NC(=O)[C@H](Cc1ccccc1)NC(=O)[C@H](CCC(=O)O)NC(=O)C(C)(C)NC(=O)[C@H](C)NC(=O)[C@H](C)NC(=O)[C@H](CCC(N)=O)NC(=O)[C@H](CCCCN)NC(=O)[C@H](CC(=O)O)NC(=O)[C@H](CC(C)C)NC(=O)[C@H](Cc1ccc(O)cc1)NC(=O)[C@@H](NC(=O)[C@H](CO)NC(=O)[C@H](Cc1ccc(O)cc1)NC(=O)[C@H](CC(=O)O)NC(=O)[C@H](CO)NC(=O)[C@@H](NC(=O)[C@H](Cc1ccccc1)NC(=O)[C@@H](NC(=O)CNC(=O)[C@H](CCC(=O)O)NC(=O)CSCC(=O)NCCN1C[C@H](OC)CC1=O)[C@@H](C)O)[C@@H](C)O)[C@@H](C)CC)C(C)C)C(N)=O)C(=O)O [Compound 8] | 90 | – | 90 | – | 57 | – | 57 | – | – | < 0.1 | < 0.1 | 1 to 10 | 1 to 10 | > 1000 |
| CCCCCCCCCCCCCCCC(=O)N[C@@H](CCC(=O)NCCCC[C@H](NC(=O)[C@H](CO)NC(=O)[C@@H]1CCCN1C(=O)[C@@H]1CCCN1C(=O)[C@@H]1CCCN1C(=O)[C@H](C)NC(=O)CNC(=O)[C@H](CO)NC(=O)[C@H](CO)NC(=O)[C@@H]1CCCN1C(=O)CNC(=O)CNC(=O)[C@H](C)NC(=O)[C@H](CC(C)C)NC(=O)[C@H](CC(C)C)NC(=O)[C@H](Cc1c[nH]c2ccccc12)NC(=O)[C@H](CC(N)=O)NC(=O)[C@@H](NC(=O)[C@H](Cc1ccccc1)NC(=O)[C@H](CCC(=O)O)NC(=O)C(C)(C)NC(=O)[C@H](C)NC(=O)[C@H](C)NC(=O)[C@H](CCC(N)=O)NC(=O)[C@H](CCCCN)NC(=O)[C@H](CC(=O)O)NC(=O)[C@H](CC(C)C)NC(=O)[C@H](Cc1ccc(O)cc1)NC(=O)[C@@H](NC(=O)[C@H](CO)NC(=O)[C@H](Cc1ccc(O)cc1)NC(=O)[C@H](CC(=O)O)NC(=O)[C@H](CO)NC(=O)[C@@H](NC(=O)[C@H](Cc1ccccc1)NC(=O)[C@@H](NC(=O)CNC(=O)[C@H](CCC(=O)O)NC(=O)CCNC(=O)CCN1CCCCC1=O)[C@@H](C)O)[C@@H](C)O)[C@@H](C)CC)C(C)C)C(N)=O)C(=O)O [Compound 9] | 100 | < 0.1 | 100 | < 0.1 | 48 | 1 to 10 | 48 | 1 to 10 | > 1000 | – | – | – | – | – |
| CCCCCCCCCCCCCCCC(=O)N[C@@H](CCC(=O)NCCCC[C@H](NC(=O)[C@H](CO)NC(=O)[C@@H]1CCCN1C(=O)[C@@H]1CCCN1C(=O)[C@@H]1CCCN1C(=O)[C@H](C)NC(=O)CNC(=O)[C@H](CO)NC(=O)[C@H](CO)NC(=O)[C@@H]1CCCN1C(=O)CNC(=O)CNC(=O)[C@H](C)NC(=O)[C@H](CC(C)C)NC(=O)[C@H](CC(C)C)NC(=O)[C@H](Cc1c[nH]c2ccccc12)NC(=O)[C@H](CC(N)=O)NC(=O)[C@@H](NC(=O)[C@H](Cc1ccccc1)NC(=O)[C@H](CCC(=O)O)NC(=O)C(C)(C)NC(=O)[C@H](C)NC(=O)[C@H](C)NC(=O)[C@H](CCC(N)=O)NC(=O)[C@H](CCCCN)NC(=O)[C@H](CC(=O)O)NC(=O)[C@H](CC(C)C)NC(=O)[C@H](Cc1ccc(O)cc1)NC(=O)[C@@H](NC(=O)[C@H](CO)NC(=O)[C@H](Cc1ccc(O)cc1)NC(=O)[C@H](CC(=O)O)NC(=O)[C@H](CO)NC(=O)[C@@H](NC(=O)[C@H](Cc1ccccc1)NC(=O)[C@@H](NC(=O)CNC(=O)[C@H](CCC(=O)O)NC(=O)CSCC(=O)NCCN1CCCC(C)(C)C1=O)[C@@H](C)O)[C@@H](C)O)[C@@H](C)CC)C(C)C)C(N)=O)C(=O)O [Compound 10] | 95 | – | 95 | – | 32 | – | 32 | – | – | 0.1 to 1 | 0.1 to 1 | 1 to 10 | 1 to 10 | > 1000 |
